Assay [1] is described as follows: Trypanosoma cruzi growth suppression in host cells – NIH3T3 host cells, beta-gal luminescence, confirmation (AID 2044).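 Note: intracellular parasites grown in NIH/3T3 mouse fibroblasts as host cells; luminescent beta-galactosidase reporter signal from transgenic T. cruzi replicating inside host cells; inhibitors lower the luminescence signal.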 Type of assay: functional, cell-based.
The nature of assay [2]: NIH3T3 cell viability loss – ATP luminescence, mouse fibroblasts, counter-screen, dose response (AID 2010).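 Note: cells exposed to compound for about 90 hours before reading.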 Format: functional, cell-based. In general terms: Counterscreens check selectivity or assay interference.
Assay [3] addresses T1, Heat shock factor protein 1 (Mus musculus, UniProt P38532).
T1 sequence (P38532 whole entry): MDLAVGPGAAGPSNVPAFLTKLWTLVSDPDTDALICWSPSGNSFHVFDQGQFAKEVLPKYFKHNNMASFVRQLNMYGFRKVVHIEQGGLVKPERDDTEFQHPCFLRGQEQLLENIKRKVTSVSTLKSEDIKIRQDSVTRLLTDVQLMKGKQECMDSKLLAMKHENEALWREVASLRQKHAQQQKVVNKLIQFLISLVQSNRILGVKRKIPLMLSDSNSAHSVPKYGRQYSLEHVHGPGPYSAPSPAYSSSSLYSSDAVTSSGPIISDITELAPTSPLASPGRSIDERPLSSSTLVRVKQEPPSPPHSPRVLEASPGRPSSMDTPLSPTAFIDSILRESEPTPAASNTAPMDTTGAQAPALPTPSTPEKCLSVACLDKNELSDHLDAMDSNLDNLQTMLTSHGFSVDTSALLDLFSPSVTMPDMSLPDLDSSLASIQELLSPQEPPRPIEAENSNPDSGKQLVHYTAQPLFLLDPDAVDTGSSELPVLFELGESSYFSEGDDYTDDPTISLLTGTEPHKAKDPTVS
Description: decrease of HSF1-responsive luciferase luminescence – cell-based, NIH3T3, dose retest, confirmation (AID 2382).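 Note: NIH3T3 fibroblasts with HSF1-driven luciferase reporter stressed by proteasome inhibitor MG132; luminescence from HSF1-driven luciferase expression after 8 hours of MG132 stress.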 Type of assay: functional.

Assay [4] can be described thus: Luminescence Cell-Based Dose Retest to Confirm Inhibitors of Cancer Stem Cells. [Related pubchem assays (depositor defined):AID2717, AID2721]. Type of assay: functional. As to conditions: Homo sapiens.
The next assay deals with Cytochrome P450 2C9 (Homo sapiens, UniProt P11712).
The nature of assay [5]: Luminescence Cell-Based Dose Response HTS to Identify Inhibitors of 5'UTR Stem-Loop Driven Prion Protein mRNA Translation in H4 Neuroglioblastoma Cells. [Related pubchem assays: 1827 (Project Summary), 1813 (Primary HTS)]. Type of assay: functional.
Assay [6] can be described thus: luciferase reporter signal suppression in cells – H4 neuroglioma cells, luminescence, dose response (AID 1990). Type of assay: functional, cell-based.
Assay [7] can be described thus: alpha-synuclein stem-loop luciferase translation blockers – H4 neuroglioma cells, luminescence, confirmation (AID 1988). Type of assay: functional, cell-based.
A further assay deals with Cytochrome P450 3A4 (Homo sapiens, UniProt P08684).
In another assay the test system is INS1. As to the kind of experiment: INS-1E survival protection against cytokine death – cell-based, luminescence, retest, dose response (AID 449756).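 Note: cell death triggered by IL-1 beta plus TNF-alpha plus IFN-gamma mixture; protective hits raise ATP signal compared with cytokine alone wells.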 Type of assay: functional. To be noted: Rattus norvegicus.
The next assay relates to Streptococcus. As to the kind of experiment: GAS UMAA2166 growth inhibition – luminescence, BacTiterGlo, counter-screen for streptokinase expression inhibitor project, dose response (AID 1915).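 Note: potency for reduction of bacterial viability or growth.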 Type of assay: functional, organism-based.
For assay [8], the system named is Streptococcus sp. 'group A'. Description: Streptococcus pyogenes SK(-)GAS viability under kanamycin – luminescence, BacTiterGlo, confirmation, counter-screen for streptokinase expression inhibitor project, dose response (AID 1900). Format: functional, organism-based.

Active and inactive are the calls of the source. Cut-off read from the data, not from the text of the source, for most assays here: actives have a measured EC50 and inactives only a lower limit. A value given as a limit tells only on which side of the number the result lay.

The values that follow come from ChEMBL document CHEMBL1201862, “PubChem BioAssay data set” (2004).

Cytochrome P450 3A4, sequence (P08684 whole entry): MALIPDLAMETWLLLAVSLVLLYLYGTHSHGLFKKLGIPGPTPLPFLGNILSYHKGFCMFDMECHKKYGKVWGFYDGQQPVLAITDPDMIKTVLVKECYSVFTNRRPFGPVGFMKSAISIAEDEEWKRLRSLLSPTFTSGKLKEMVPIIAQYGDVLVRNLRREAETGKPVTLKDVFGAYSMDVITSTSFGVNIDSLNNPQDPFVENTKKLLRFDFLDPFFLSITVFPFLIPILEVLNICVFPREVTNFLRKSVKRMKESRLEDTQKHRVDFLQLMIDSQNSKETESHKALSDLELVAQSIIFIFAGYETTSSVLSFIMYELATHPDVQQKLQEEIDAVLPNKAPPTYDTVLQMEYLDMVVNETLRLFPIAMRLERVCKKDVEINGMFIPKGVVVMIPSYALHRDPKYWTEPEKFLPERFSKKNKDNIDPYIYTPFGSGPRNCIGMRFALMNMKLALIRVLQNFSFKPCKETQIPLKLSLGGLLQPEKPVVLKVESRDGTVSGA
Cytochrome P450 2C9, sequence (P11712 whole entry): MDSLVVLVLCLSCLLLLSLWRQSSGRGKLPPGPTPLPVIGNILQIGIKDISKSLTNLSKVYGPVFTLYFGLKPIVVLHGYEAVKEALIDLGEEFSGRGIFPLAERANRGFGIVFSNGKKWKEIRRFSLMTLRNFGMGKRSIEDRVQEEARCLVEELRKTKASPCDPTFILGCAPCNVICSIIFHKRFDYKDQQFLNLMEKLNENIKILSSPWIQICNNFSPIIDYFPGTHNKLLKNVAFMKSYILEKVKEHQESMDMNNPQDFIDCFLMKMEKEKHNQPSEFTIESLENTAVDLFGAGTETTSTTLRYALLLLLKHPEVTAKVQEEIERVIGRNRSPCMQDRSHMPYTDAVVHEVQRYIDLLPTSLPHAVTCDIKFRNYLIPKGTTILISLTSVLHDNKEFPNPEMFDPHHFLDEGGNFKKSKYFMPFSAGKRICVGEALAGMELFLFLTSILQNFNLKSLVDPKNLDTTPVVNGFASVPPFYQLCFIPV

Regarding `O=C(CC12CC3CC(CC(C3)C1)C2)NC(=S)Nc1ccc(CN2CCOCC2)cc1`, the figures for the EC50 in assay [1] and in [2] were 1.51 µM (active) and 9.26 µM (active), respectively. `Cc1ccc(S(=O)(=O)N2CCC(C(=O)N[C@@H](Cc3ccccc3)C(=O)O)CC2)cc1`: in assay [3], the EC50 is on record as > 195 µM (not active). For the molecule `CCCCn1c(C2CCCCC2)nc2cc3nc(O)c(C(C)C)nc3cc21`, in assay [4], the AC50 is 1.23 µM (active). Take `CC/C(NNc1ccccc1)=C1/C(=O)NC(=O)N(c2ccccc2)C1=O`: the AC50 in assay [4] was 0.828 µM (active). Regarding `Cn1ccnc1C1CCCCN1C(=O)c1cc(COc2ccc(F)cc2Cl)on1` (stereo not drawn), the EC50 in assay [3] is recorded as > 195 µM (not active).

For `COc1cc(CNCCN2CCOCC2)ccc1OCc1ccccc1Cl`, at Cytochrome P450 2C9, the AC50 was 7.94 µM (inconclusive).

For `O=C(Nc1cccnc1Cl)c1cc([N+](=O)[O-])ccc1Cl`, the EC50 in [1] and in assay [2] was > 60 µM (not active) each time. As for `CS(=O)(=O)n1nc(-c2cccnc2)nc1NCc1ccccc1`, the EC50 in [5], in assay [6] and in assay [7] was > 120 µM (not active) throughout. `COc1ccc2nc(NC(=O)c3cccc(-c4cc5ccccc5oc4=O)c3)sc2c1`: in [4], the AC50 was 6.73 µM (active). As to `O=C(c1nn2c(C(F)(F)F)cc(-c3ccco3)nc2c1Br)N1CCCc2ccccc21`, the EC50 is 13.8 µM (active) in [5], 8.31 µM (active) in assay [6] and 10.2 µM (active) in assay [7]. In the case of `CCOC(=O)Cc1csc(NC(=O)c2c(O)c3ccccc3n(CC(C)C)c2=O)n1`, the EC50 in assay [5] was > 120 µM (not active); in [6], > 120 µM (not active); in [7], 11.1 µM (active). Regarding `O=C(c1ccccc1)c1cc(F)c(N2CCOCC2)cc1Cl`, the AC50 at Cytochrome P450 3A4 was 17.8 µM (inconclusive). As for `CC(=O)c1cccc(/N=c2\scc(-c3ccc(S(=O)(=O)N4CCOCC4)cc3)n2CCO)c1`, the AC50 in the assay on INS1 was 2.5 µM (active). With `COCCCN=C(S)NN=C(S)Nc1cccc(Cl)c1`, the EC50 (with Streptococcus; in [8]) was > 150 µM (not active) each time. Regarding `COc1cccc(-c2cc(NCCc3c[nH]c4ccc(OC)cc34)ncn2)c1`, at Cytochrome P450 2C9, the AC50 is 1.58 µM (inconclusive). For the molecule `Cn1c(NCc2cccnc2)nc2c1c(=O)n(Cc1ccccc1F)c(=O)n2C`, the EC50 in [5] is > 120 µM (not active); in assay [6], 18.5 µM (active); in assay [7], > 120 µM (not active). Take `CC(=O)NC(=S)Nc1cccc(S(=O)(=O)NC2=NCCC2)c1`: in [3], the EC50 is listed as > 195 µM (not active).

With `O=C(CCNC(=O)c1ccccc1Cl)Nc1nc(-c2ccc3ccccc3c2)cs1`, the results for the EC50 in assay [1] and in assay [2] were 2.02 µM (active) and > 60 µM (not active), respectively. Turning to `COc1cccc2s/c(=N/C(=O)CS(=O)(=O)c3ccc(F)cc3)n(C)c12`, the EC50 is 1.2 µM (active) in [1] and > 60 µM (not active) in assay [2].

With `CC/C(NNc1ccccc1)=C1/C(=O)NC(=O)N(c2ccc(OC)cc2)C1=O`, the AC50 in assay [4] was 0.769 µM (active). Turning to `Nc1nnc(SCCOc2cccc(Br)c2)s1`, the AC50 at Cytochrome P450 2C9 is 15.8 µM (inconclusive). Still for that read-out and setting: for `CCCn1c2c(c(O)c(C(=O)NCc3ccccc3)c1=O)CCCC2` the value was 20 µM (inconclusive).

On to `Cc1ccc(C)c(NC(=O)c2ccccc2NS(=O)(=O)c2cc([N+](=O)[O-])ccc2C)c1`, for which the AC50 in [4] is 1.19 µM (active); in the assay with INS1 it was 3.76 µM (active). With `COc1ccc([C@@H]2[C@@H]3C(=O)N(C(C)(C)C)C(=O)[C@@H]3[C@]3(C)C(=O)N(c4cccc(F)c4)C(=O)N23)cc1`, the EC50 in [5], in assay [6] and in [7] was > 120 µM (not active) in each case. Regarding `CCn1c(C)c(C)c2cc(C(=O)N3CCN(c4cccc(C)c4C)CC3)ccc21`, the AC50 in [4] is 4.18 µM (active). On to `COc1ccc(OC)c(NC(=O)CSc2nnc(-c3cccnc3)s2)c1`, for which the AC50 in the assay on INS1 is 3.66 µM (active). Consider `N#Cc1c(N2CCOCC2)nc(-c2ccco2)c2c1CCCC2`, for which the EC50 in [5] was 18.5 µM (active); in assay [6] it was 21.5 µM (active); in [7] it was > 120 µM (not active).

Regarding `CCOc1ccc(-c2cc(CCCC(=O)N3CCN(c4ccc(OC)cc4)CC3)no2)cc1`, the EC50 in assay [5] was > 120 µM (not active); in [6], > 120 µM (not active); in assay [7] it was 28.1 µM (active). With `O=C(CSc1nc2ccccc2n1S(=O)(=O)c1ccccc1)N1CCCCC1`, in [3], the EC50 is on record as > 195 µM (not active). With `COC(=O)N/N=C/c1ccc(/C=N/NC(=O)OC)cc1`, the EC50 in [3] is > 195 µM (not active). Take `Cn1c(-c2ccsc2)c(-c2cccs2)c2cc(Br)ccc21`: the AC50 in assay [4] was 3.15 µM (active). Turning to `C/C(=N/Cc1cccc(Cl)c1)c1nc(-c2ccco2)oc1O`, the AC50 in assay [4] is 1.08 µM (active).

As to `CC(C)C(NC(=O)C12CC3CC(CC(C3)C1)C2)C(=O)N/N=C/C1=C(N2CCOCC2)C(=C\c2cccc([N+](=O)[O-])c2)/CC1` (stereo not drawn), the EC50 is 2.16 µM (active) in [1] and > 60 µM (not active) in assay [2]. With `Cc1noc(C)c1C(=O)N1CCC(C(=O)c2ccccc2)CC1`, in assay [3], the EC50 is on record as > 195 µM (not active).

Turning to `Cc1cc(C)n(-c2ccc(NC(=O)C3CCCCN3C(=O)c3ccoc3C)cc2)n1` (stereo not drawn), the EC50 in assay [3] is listed as > 195 µM (not active). As to `O=C(NCCS(=O)(=O)N1CCN(c2ccc(F)cc2)CC1)c1ccc(Br)o1`, the EC50 in assay [5], in [6] and in assay [7] was > 120 µM (not active) throughout. Take `Cc1ccc(-n2nc(C)c3c(C)c(CCC(=O)NCC4CCCO4)c(=O)n(C)c32)cc1` (stereo not drawn): the figures for the EC50 in assay [1] and in assay [2] were 5.19 µM (active) and > 60 µM (not active), respectively.

Regarding `CN(C)Cc1ccccc1-c1ccc2ncnc(N(C)Cc3ccco3)c2c1`, on Cytochrome P450 3A4, the AC50 is 15.8 µM (inconclusive). For `O=C(C1=C[C@H](c2ccc(C(F)(F)F)cc2)C[C@H](OCCCCO)O1)N1CCN(Cc2ccc3c(c2)OCO3)CC1`, the EC50 in assay [3] is > 195 µM (not active). For the molecule `O=C1C2CCCN2C(c2ccc(F)cc2)N1c1nccs1` (stereo not drawn), the AC50 on Cytochrome P450 2C9 was 35.5 µM (inconclusive); at Cytochrome P450 3A4, 22.4 µM (inconclusive). Regarding `c1ccc(Cn2c[n+](Cc3ccccc3)cn2)cc1`, the EC50 in assay [3] is reported as > 195 µM (not active). For the molecule `Clc1ccccc1N1CCN(Cc2c[nH]c3ccccc23)CC1`, the results for the EC50 in assay [1] and in [2] were 1.43 µM (active) and > 60 µM (not active), respectively. Take `CCOc1ccc(-n2nc3ccc(NC(=O)c4ccc5c(c4)OCCO5)cc3n2)cc1`: the EC50 was 72.6 µM (active) in assay [5], > 120 µM (not active) in assay [6] and 12.7 µM (active) in assay [7].

`C=C(C)COc1ccc2c(c1)CCC1C2CC[C@]2(C)C(=O)/C(=N/O)CC12` (stereo partly drawn): the AC50 at Cytochrome P450 2C9 was 3.16 µM (inconclusive). With `CN1CCN(NC(=O)c2ccc(S(=O)(=O)N3CCCCCC3)cc2)CC1`, the EC50 was 0.247 µM (active) in [1] and > 60 µM (not active) in assay [2]. Consider `Cc1cccc(Nc2c([N+](=O)[O-])cc(C(=O)N3CC(=O)Nc4ccccc43)cc2[N+](=O)[O-])c1`, for which the EC50 in [1] was 0.518 µM (active); in assay [2] it was > 60 µM (not active). Consider `CN(Cc1ccccc1)CC(O)COc1ccc(CNCCc2ccncc2)cc1` (stereo not drawn), for which the concentration giving a half-maximal response (EC50) in assay [1] was 0.9 µM (active); in [2] it was > 60 µM (not active). On to `Cc1ccc(NCc2ccc(C)s2)cc1`, for which the EC50 in [1] is 2.13 µM (active); in [2] it was > 60 µM (not active). As to `CCOCC(=O)Nc1cc(C(=O)Nc2cccc(C)c2C)ccc1Cl`, the AC50 on Cytochrome P450 3A4 is 25.1 µM (inconclusive). In the case of `Cc1ccc(Cl)cc1N=C(S)N(Cc1cccnc1)Cc1ccccc1Cl`, the EC50 was 0.554 µM (active) in assay [1] and > 60 µM (not active) in assay [2].

In the case of `CC(C)c1nc(N2CCOCC2)c(C#N)c2c1COC(C)(C)C2`, the EC50 in [5] was > 120 µM (not active); in assay [6] it was 33.6 µM (active); in [7], > 120 µM (not active).

Regarding `CCC(C)(C)n1nnnc1C(c1cc2ccc(OC)cc2nc1O)N1CCc2ccccc2C1` (stereo not drawn), the EC50 in [1] was 1.91 µM (active); in assay [2] it was 4.98 µM (active).

What is called EC50 is the midpoint of the concentration-response curve. One may read the AC50 as the concentration giving half of the maximal activity seen.
